The source of these data is ChEMBL document CHEMBL5724914, “Linking interpersonal differences in gut microbiota composition and drug biotransformation activity” (2024).

Data set [1] can be described thus: The drug is tested on Z-030 corresponding to mouse gut metagenome with ENA study accession number: PRJEB37062 and ENA sample accession number: ERS12561829 for biotransformation under anaerobic condition. The drug concentrations were measured over 9 timepoints collected between 0 and 24 hours of incubation by liquid-chromatography-coupled mass spectrometry (LC–MS). The note with it: 2 µM.

Data set [2] can be described thus: The drug is tested on WLS-240 corresponding to human gut metagenome with ENA study accession number: PRJEB37062 and ENA sample accession number: ERS12561773 for biotransformation under anaerobic condition. The drug concentrations were measured over 9 timepoints collected between 0 and 24 hours of incubation by liquid-chromatography-coupled mass spectrometry (LC–MS). The settings on record: 2 µM.

The nature of data set [3]: The drug is tested on Z-004 corresponding to metagenome with ENA study accession number: PRJEB37062 and ENA sample accession number: ERS12561804 for biotransformation under anaerobic condition. The drug concentrations were measured over 9 timepoints collected between 0 and 24 hours of incubation by liquid-chromatography-coupled mass spectrometry (LC–MS). The note with it: 2 µM.

The nature of data set [4]: The drug is tested on Z-028 corresponding to mouse gut metagenome with ENA study accession number: PRJEB37062 and ENA sample accession number: ERS12561827 for biotransformation under anaerobic condition. The drug concentrations were measured over 9 timepoints collected between 0 and 24 hours of incubation by liquid-chromatography-coupled mass spectrometry (LC–MS). The settings on record: 2 µM.

For data set [5] the following is noted: human gut metagenome, 24 h, 2 µM.
Data set [6] in a line: The drug is tested on Z-026 corresponding to metagenome with ENA study accession number: PRJEB37062 and ENA sample accession number: ERS12561825 for biotransformation under anaerobic condition. The drug concentrations were measured over 9 timepoints collected between 0 and 24 hours of incubation by liquid-chromatography-coupled mass spectrometry (LC–MS). The note with it: 2 µM.

For data set [7] the following is noted: human gut metagenome, 24 h, 2 µM. The source holds these as a separate data set.
Data set [8] in a line: The drug is tested on Z-017 corresponding to mouse gut metagenome with ENA study accession number: PRJEB37062 and ENA sample accession number: ERS12561816 for biotransformation under anaerobic condition. The drug concentrations were measured over 9 timepoints collected between 0 and 24 hours of incubation by liquid-chromatography-coupled mass spectrometry (LC–MS). The settings on record: 2 µM.

For data set [9] the following is noted: human gut metagenome, 24 h, 2 µM. The source holds these as a separate data set.
For data set [10] the following is noted: human gut metagenome, 24 h, 2 µM. This is another data set of the same source.
For data set [11] the following is noted: human gut metagenome, 24 h, 2 µM. The source holds these as a separate data set.
The nature of data set [12]: The drug is tested on WLS-039 corresponding to human gut metagenome with ENA study accession number: PRJEB37062 and ENA sample accession number: ERS12561746 for biotransformation under anaerobic condition. The drug concentrations were measured over 9 timepoints collected between 0 and 24 hours of incubation by liquid-chromatography-coupled mass spectrometry (LC–MS). The note with it: 2 µM.

Data set [13] is described as follows: The drug is tested on Z-005 corresponding to metagenome with ENA study accession number: PRJEB37062 and ENA sample accession number: ERS12561805 for biotransformation under anaerobic condition. The drug concentrations were measured over 9 timepoints collected between 0 and 24 hours of incubation by liquid-chromatography-coupled mass spectrometry (LC–MS). The note with it: 2 µM.

The conditions of data set [14]: human gut metagenome, 24 h, 2 µM. The source holds these as a separate data set.
Data set [15] is described as follows: The drug is tested on Z-007 corresponding to rat gut metagenome with ENA study accession number: PRJEB37062 and ENA sample accession number: ERS12561807 for biotransformation under anaerobic condition. The drug concentrations were measured over 9 timepoints collected between 0 and 24 hours of incubation by liquid-chromatography-coupled mass spectrometry (LC–MS). The note with it: 2 µM.

The conditions of data set [16]: human gut metagenome, 24 h, 2 µM. The source holds these as a separate data set.
For data set [17] the following is noted: human gut metagenome, 24 h, 2 µM. This is another data set of the same source.
Data set [18] can be described thus: The drug is tested on WLS-006 corresponding to human gut metagenome with ENA study accession number: PRJEB37062 and ENA sample accession number: ERS12561741 for biotransformation under anaerobic condition. The drug concentrations were measured over 9 timepoints collected between 0 and 24 hours of incubation by liquid-chromatography-coupled mass spectrometry (LC–MS). The note with it: 2 µM.

Data set [19] can be described thus: The drug is tested on Z-009 corresponding to pig gut metagenome with ENA study accession number: PRJEB37062 and ENA sample accession number: ERS12561809 for biotransformation under anaerobic condition. The drug concentrations were measured over 9 timepoints collected between 0 and 24 hours of incubation by liquid-chromatography-coupled mass spectrometry (LC–MS). The note with it: 2 µM.

For data set [20] the following is noted: human gut metagenome, 24 h, 2 µM. The source holds these as a separate data set.

The structures appear in SMILES notation.
Also: call rule not given here.

In the case of `CC(C)(C)NCC(O)c1cc(Cl)c(N)c(Cl)c1` (stereo not given) [CLENBUTEROL], the “Bacterial Biotransformation” value in [1], in [2], in data set [3], in data set [4], in data set [5] and in data set [6] was “Compound NOT metabolized” each time. Also, the “Bacterial Biotransformation” value in [7], in data set [8], in data set [9], in data set [10], in data set [11] and in data set [12] was “Compound NOT metabolized” throughout. Also, the “Bacterial Biotransformation” value in data set [13], in data set [14], in [15], in [16], in [17] and in data set [18] was “Compound NOT metabolized” throughout. Further, the “Bacterial Biotransformation” value in data set [19] and in [20] was “Compound NOT metabolized” each time.
With `CN(C)CCOC(C)(c1ccccc1)c1ccccn1.O=C(O)CCC(=O)O` (stereo not given) [DOXYLAMINE SUCCINATE], the “Bacterial Biotransformation” value in data set [1], in data set [2], in data set [3], in data set [4], in data set [5] and in data set [6] was “Compound NOT metabolized” in each case. Besides, the “Bacterial Biotransformation” value in data set [7], in [8], in data set [9], in data set [10], in data set [11] and in data set [12] was “Compound NOT metabolized” throughout. For the same compound, the “Bacterial Biotransformation” value in data set [13], in [14], in [15], in [16], in data set [17] and in data set [18] was “Compound NOT metabolized” in each case. The “Bacterial Biotransformation” value in data set [19] and in [20] was “Compound NOT metabolized” throughout.
Consider `CCOc1cc(CC(=O)N[C@@H](CC(C)C)c2ccccc2N2CCCCC2)ccc1C(=O)O` [REPAGLINIDE], for which the “Bacterial Biotransformation” value was “Compound NOT metabolized” in [1]; “Compound metabolized” in data set [2]; “Compound metabolized” in data set [3]; “Compound metabolized” in [4]; “Compound metabolized” in data set [5]; “Compound NOT metabolized” in [6]. In addition, the “Bacterial Biotransformation” value in data set [7] was “Compound metabolized”; in data set [8], “Compound metabolized”; in data set [9] it was “Compound metabolized”; in data set [10], “Compound NOT metabolized”; in data set [11], “Compound metabolized”; in [12], “Compound metabolized”. Besides, the “Bacterial Biotransformation” value in data set [13], in data set [14], in data set [15], in data set [16], in [17] and in data set [18] was “Compound metabolized” each time. The “Bacterial Biotransformation” value in data set [19] and in [20] was “Compound metabolized” throughout.
For the compound `CC[C@@]1(O)C(=O)OCc2c1cc1n(c2=O)Cc2cc3c(CN(C)C)c(O)ccc3nc2-1` [TOPOTECAN], the “Bacterial Biotransformation” value in [1], in data set [2], in [3], in [4], in data set [5] and in data set [6] was “Compound NOT metabolized” each time. For the same compound, the “Bacterial Biotransformation” value in data set [7], in [8], in data set [9], in data set [10], in data set [11] and in data set [12] was “Compound NOT metabolized” each time. In addition, the “Bacterial Biotransformation” value in [13], in data set [14], in data set [15], in data set [16], in data set [17] and in [18] was “Compound NOT metabolized” each time. The “Bacterial Biotransformation” value in [19] and in data set [20] was “Compound NOT metabolized” in each case.
`CC(C)(C)NC(=O)[C@H]1CC[C@H]2[C@@H]3CC[C@H]4NC(=O)C=C[C@]4(C)[C@H]3CC[C@]12C` [FINASTERIDE]: the “Bacterial Biotransformation” value is reported as “Compound NOT metabolized” in data set [1]; “Compound metabolized” in data set [2]; “Compound NOT metabolized” in [3]; “Compound metabolized” in data set [4]; “Compound metabolized” in data set [5]; “Compound metabolized” in data set [6]. The “Bacterial Biotransformation” value was “Compound metabolized” in data set [7]; “Compound NOT metabolized” in data set [8]; “Compound metabolized” in [9]; “Compound metabolized” in data set [10]; “Compound metabolized” in [11]; “Compound metabolized” in [12]. Moreover, the “Bacterial Biotransformation” value in data set [13] was “Compound metabolized”; in [14], “Compound metabolized”; in [15], “Compound NOT metabolized”; in data set [16], “Compound metabolized”; in [17] it was “Compound metabolized”; in data set [18], “Compound metabolized”. Besides, the “Bacterial Biotransformation” value in data set [19] and in data set [20] was “Compound metabolized” in each case.
For the compound `COc1ccc2c(c1)c(CC(=O)O)c(C)n2C(=O)c1ccc(Cl)cc1` [INDOMETHACIN], the “Bacterial Biotransformation” value is reported as “Compound NOT metabolized” in [1]; “Compound metabolized” in [2]; “Compound NOT metabolized” in data set [3]; “Compound NOT metabolized” in data set [4]; “Compound NOT metabolized” in data set [5]; “Compound NOT metabolized” in data set [6]. The “Bacterial Biotransformation” value in [7] was “Compound metabolized”; in data set [8], “Compound NOT metabolized”; in data set [9], “Compound metabolized”; in [10], “Compound NOT metabolized”; in data set [11], “Compound metabolized”; in data set [12], “Compound metabolized”. The “Bacterial Biotransformation” value is “Compound NOT metabolized” in [13]; “Compound NOT metabolized” in [14]; “Compound NOT metabolized” in data set [15]; “Compound metabolized” in [16]; “Compound metabolized” in [17]; “Compound metabolized” in data set [18]. Also, the “Bacterial Biotransformation” value in data set [19] was “Compound NOT metabolized”; in data set [20], “Compound metabolized”.
